Assay results published in patent US9902736B2, “1-oxo/acylation-14-acylated oridonin derivative, preparation method therefor and application thereof” (HANGZHOU BENSHENG PHARMACEUTICAL CO., LTD., priority 2012, dated 2018).
In brackets after ≈: the same amount, converted by molar mass. Each block holds one molecule with its values, some of them ahead of it.

Tests used:
A549 = experiment: Solid tumor cell growth inhibition, MTT, 72 h; format: cell-based; conditions: Homo sapiens
Experimental: (§1) 6000 well-growing human solid tumor cells were obtained and inoculated into wells of a 96-well cell culture plate. The culture medium was DMEM High Glucose cell culture medium containing 10% fetal bovine serum. The plate was placed in a carbon dioxide cell incubator (5% CO2) at 37° C. and incubated for 24 hours. After added with 1-oxo/acylated-14-acylated oridonin derivatives of different concentration and mixed uniformly, the plate was placed in a carbon dioxide cell incubator (5% CO2) at 37° C. and incubated for 72 hours. Then the viable cell concentration was determined by MTT method.

Hep G2 = experiment: Solid tumor cell growth inhibition, MTT, 72 h; format: cell-based; conditions: Homo sapiens, HepG2
Experimental: as §1

CaEs-17 = experiment: Solid tumor cell growth inhibition, MTT, 72 h; format: cell-based; conditions: Homo sapiens, CaEs17
Experimental: as §1

MG-63 = experiment: Solid tumor cell growth inhibition, MTT, 72 h; format: cell-based; conditions: Homo sapiens
Experimental: as §1

RKO = experiment: Solid tumor cell growth inhibition, MTT, 72 h; format: cell-based; conditions: Homo sapiens
Experimental: as §1

PC-3 = experiment: Solid tumor cell growth inhibition, MTT, 72 h; format: cell-based; conditions: Homo sapiens
Experimental: as §1

PANC-1 = experiment: Solid tumor cell growth inhibition, MTT, 72 h; format: cell-based; conditions: Homo sapiens
Experimental: as §1

Becap-37 = experiment: Solid tumor cell growth inhibition, MTT, 72 h; format: cell-based; conditions: Homo sapiens
Experimental: as §1

U87-MG = experiment: Solid tumor cell growth inhibition, MTT, 72 h; format: cell-based; conditions: Homo sapiens, U-87 MG
Experimental: as §1

SK-OV-3 = experiment: Solid tumor cell growth inhibition, MTT, 72 h; format: cell-based; conditions: Homo sapiens, SK-OV-3, 72 h, MTT; for IC50: read-out: IC50 SK-OV-3; for IC90: read-out: IC90 SK-OV-3
Experimental: as §1

RPMI 8226 = experiment: Multiple myeloma cell growth inhibition, MTT, 72 h; format: cell-based; conditions: Homo sapiens
Experimental: Multiple myeloma cell lines: RPMI8226 (multiple myeloma), purchased from Fuxiang Bio-tech Co. Ltd., Shanghai, China.
(§2) 6000 well-growing cells were obtained and inoculated into wells of a 96-well cell culture plate. […] On the next day, the 1-oxo/acylated-14-acylated oridonin derivatives of different concentrations were added and mixed uniformly. The plate was placed in a carbon dioxide cell incubator (5% CO2) at 37° C. and incubated for 72 hours. Then the viable cell concentration was determined by MTT method.

Kasumi-1 = experiment: Leukemia cell growth inhibition, MTT, 72 h; format: cell-based; conditions: Homo sapiens
From the text: (§3) Leukemia cell lines: leukemia cell lines: K562/adr (drug-resistant, chronic myeloid leukemia, CML), NB4 (acute promyelocytic leukemia, AML), Kasumi-1 (acute myeloid leukemia M2 type, AML-M2), Jurkat (acute lymphoblastic leukemia, ALL), all of which were donated by Cancer Research Institute of Zhejiang University, China; and H9 (acute lymphoblastic leukemia, ALL), which was purchased from China Center for Type Culture Collection.
as §2, with “6000 well-growing leukemia cells were” for “6000 well-growing cells were”, “C. and was incubated for” for “C. and incubated for”

K562/ADR = experiment: Leukemia cell growth inhibition, MTT, 72 h; format: cell-based; conditions: Homo sapiens
From the text: as §3
as §2, with “6000 well-growing leukemia cells were” for “6000 well-growing cells were”, “C. and was incubated for” for “C. and incubated for”

Jurkat = experiment: Leukemia cell growth inhibition, MTT, 72 h; format: cell-based, human; conditions: for IC50 / IC90: Homo sapiens, Jurkat, 72 h, MTT
From the text: as §3
as §2, with “6000 well-growing leukemia cells were” for “6000 well-growing cells were”, “C. and was incubated for” for “C. and incubated for”

H9 = experiment: Leukemia cell growth inhibition, MTT, 72 h; format: cell-based, human; conditions: Homo sapiens, H9; 72 h, MTT
From the text: as §3
as §2, with “6000 well-growing leukemia cells were” for “6000 well-growing cells were”, “C. and was incubated for” for “C. and incubated for”

NB4 = experiment: Leukemia cell growth inhibition, MTT, 72 h; format: cell-based, human; conditions: Homo sapiens, NB-4; 72 h, MTT
From the text: as §3
as §2, with “6000 well-growing leukemia cells were” for “6000 well-growing cells were”, “C. and was incubated for” for “C. and incubated for”

CNE = experiment: Solid tumor cell growth inhibition, MTT, 72 h; format: cell-based, human; conditions: Homo sapiens, CNE; 72 h, MTT
Experimental: as §1

Hela = experiment: Solid tumor cell growth inhibition, MTT, 72 h; format: cell-based, human; conditions: Homo sapiens, HeLa; 72 h, MTT
Experimental: as §1

MGC-803 = experiment: Solid tumor cell growth inhibition, MTT, 72 h; format: cell-based, human; conditions: Homo sapiens, MGC-803; 72 h, MTT
Experimental: as §1

Hep-2 = experiment: Solid tumor cell growth inhibition, MTT, 72 h; format: cell-based, human; conditions: Homo sapiens, HEp-2; 72 h, MTT
Experimental: as §1

IC50 (A549): 2.83 mg/L (≈ 5.65 µM)
IC90 (A549): 7.29 mg/L (≈ 14.6 µM)
IC50 (Hep G2): 0.99 mg/L (≈ 1.98 µM)
IC90 (Hep G2): 11.7 mg/L (≈ 23.4 µM)
IC50 (CaEs-17): 1.1 mg/L (≈ 2.2 µM)
IC90 (CaEs-17): 5.51 mg/L (≈ 11 µM)
IC50 (MG-63): 0.46 mg/L (≈ 0.918 µM)
IC90 (MG-63): 0.95 mg/L (≈ 1.9 µM)
IC50 (RKO): 0.46 mg/L (≈ 0.918 µM)
IC90 (RKO): 0.95 mg/L (≈ 1.9 µM)
IC50 (PC-3): 1.66 mg/L (≈ 3.31 µM)
IC90 (PC-3): 4.77 mg/L (≈ 9.52 µM)
IC50 (PANC-1): 1.86 mg/L (≈ 3.71 µM)
IC90 (PANC-1): 10.7 mg/L (≈ 21.3 µM)
IC50 (Becap-37): 1.03 mg/L (≈ 2.06 µM)
IC90 (Becap-37): 3.72 mg/L (≈ 7.43 µM)
IC50 (U87-MG): 0.94 mg/L (≈ 1.88 µM)
IC90 (U87-MG): 2.78 mg/L (≈ 5.55 µM)
IC50 (SK-OV-3): 1.66 mg/L (≈ 3.31 µM)
IC90 (SK-OV-3): 4.77 mg/L (≈ 9.52 µM)
IC50 (RPMI 8226): 0.28 mg/L (≈ 0.559 µM)
IC90 (RPMI 8226): 1.78 mg/L (≈ 3.55 µM)
IC50 (Kasumi-1): 0.57 mg/L (≈ 1.14 µM)
IC90 (Kasumi-1): 1.76 mg/L (≈ 3.51 µM)
IC50 (K562/ADR): 0.44 mg/L (≈ 0.878 µM)
IC90 (K562/ADR): 1.98 mg/L (≈ 3.95 µM)
IC50 (Jurkat): 0.48 mg/L (≈ 0.958 µM)
IC90 (Jurkat): 6.06 mg/L (≈ 12.1 µM)
IC50 (H9): 0.38 mg/L (≈ 0.759 µM)
IC90 (H9): 0.96 mg/L (≈ 1.92 µM)
IC50 (NB4): 0.15 mg/L (≈ 0.299 µM)
IC90 (NB4): 0.95 mg/L (≈ 1.9 µM)
IC50 (CNE): 1.39 mg/L (≈ 2.77 µM)
IC90 (CNE): 5.94 mg/L (≈ 11.9 µM)
IC50 (Hela): 1.49 mg/L (≈ 2.97 µM)
IC90 (Hela): 5.31 mg/L (≈ 10.6 µM)
IC50 (MGC-803): 0.68 mg/L (≈ 1.36 µM)
IC90 (MGC-803): 9.04 mg/L (≈ 18 µM)
IC50 (Hep-2): 1.8 mg/L (≈ 3.59 µM)
IC90 (Hep-2): 9.11 mg/L (≈ 18.2 µM)
Compound: C=C1C(=O)[C@]23[C@H](OC(=O)c4ccc(Cl)cc4)[C@H]1CC[C@H]2[C@@]12CO[C@@]3(O)[C@@H](O)[C@@H]1C(C)(C)CCC2=O [BS-OR-010]
anti-Jurkat cell line activity increased (Jurkat; as compared with oridonin): ~4 fold

IC50 (A549): 5.58 mg/L (≈ 11.9 µM)
IC90 (A549): 9.47 mg/L (≈ 20.3 µM)
IC50 (Hep G2): 2.53 mg/L (≈ 5.41 µM)
IC90 (Hep G2): 12.6 mg/L (≈ 27 µM)
IC50 (CaEs-17): 1.41 mg/L (≈ 3.02 µM)
IC90 (CaEs-17): 5.24 mg/L (≈ 11.2 µM)
IC50 (MG-63): 0.74 mg/L (≈ 1.58 µM)
IC90 (MG-63): 3.01 mg/L (≈ 6.44 µM)
IC50 (RKO): 0.59 mg/L (≈ 1.26 µM)
IC90 (RKO): 1.44 mg/L (≈ 3.08 µM)
IC50 (PC-3): 2.53 mg/L (≈ 5.41 µM)
IC90 (PC-3): 4.87 mg/L (≈ 10.4 µM)
IC50 (PANC-1): 2.99 mg/L (≈ 6.4 µM)
IC90 (PANC-1): 7.92 mg/L (≈ 16.9 µM)
IC50 (Becap-37): 1.96 mg/L (≈ 4.19 µM)
IC90 (Becap-37): 6.11 mg/L (≈ 13.1 µM)
IC50 (U87-MG): 1.17 mg/L (≈ 2.5 µM)
IC90 (U87-MG): 3.29 mg/L (≈ 7.04 µM)
IC50 (SK-OV-3): 2.53 mg/L (≈ 5.41 µM)
IC90 (SK-OV-3): 4.87 mg/L (≈ 10.4 µM)
IC50 (RPMI 8226): 0.9 mg/L (≈ 1.93 µM)
IC90 (RPMI 8226): 1.93 mg/L (≈ 4.13 µM)
IC50 (Kasumi-1): 1.03 mg/L (≈ 2.2 µM)
IC90 (Kasumi-1): 1.94 mg/L (≈ 4.15 µM)
IC50 (K562/ADR): 0.75 mg/L (≈ 1.6 µM)
IC90 (K562/ADR): 2.35 mg/L (≈ 5.03 µM)
IC50 (Jurkat): 0.87 mg/L (≈ 1.86 µM)
IC90 (Jurkat): 5.24 mg/L (≈ 11.2 µM)
IC50 (H9): 0.56 mg/L (≈ 1.2 µM)
IC90 (H9): 1.23 mg/L (≈ 2.63 µM)
IC50 (NB4): 0.27 mg/L (≈ 0.578 µM)
IC90 (NB4): 0.9 mg/L (≈ 1.93 µM)
IC50 (CNE): 2.26 mg/L (≈ 4.83 µM)
IC90 (CNE): 8.1 mg/L (≈ 17.3 µM)
IC50 (Hela): 2.53 mg/L (≈ 5.41 µM)
IC90 (Hela): 6.79 mg/L (≈ 14.5 µM)
IC50 (MGC-803): 1.6 mg/L (≈ 3.42 µM)
IC90 (MGC-803): 11.9 mg/L (≈ 25.5 µM)
IC50 (Hep-2): 3.8 mg/L (≈ 8.13 µM)
IC90 (Hep-2): 14.1 mg/L (≈ 30.1 µM)
Compound: C=C1C(=O)[C@]23[C@H](OC(=O)c4cccnc4)[C@H]1CC[C@H]2[C@@]12CO[C@@]3(O)[C@@H](O)[C@@H]1C(C)(C)CCC2=O [BS-OR-011]

IC50 (A549): 5.55 mg/L (≈ 11.9 µM)
IC90 (A549): 10.7 mg/L (≈ 22.9 µM)
IC50 (Hep G2): 3.01 mg/L (≈ 6.44 µM)
IC90 (Hep G2): 16 mg/L (≈ 34.2 µM)
IC50 (CaEs-17): 2.01 mg/L (≈ 4.3 µM)
IC90 (CaEs-17): 10 mg/L (≈ 21.5 µM)
IC50 (MG-63): 0.99 mg/L (≈ 2.12 µM)
IC90 (MG-63): 3.84 mg/L (≈ 8.21 µM)
IC50 (RKO): 1.01 mg/L (≈ 2.16 µM)
IC90 (RKO): 1.98 mg/L (≈ 4.24 µM)
IC50 (PC-3): 3.48 mg/L (≈ 7.44 µM)
IC90 (PC-3): 7.54 mg/L (≈ 16.1 µM)
IC50 (PANC-1): 4.11 mg/L (≈ 8.79 µM)
IC90 (PANC-1): 10.2 mg/L (≈ 21.8 µM)
IC50 (Becap-37): 2.39 mg/L (≈ 5.11 µM)
IC90 (Becap-37): 6.29 mg/L (≈ 13.5 µM)
IC50 (U87-MG): 1.88 mg/L (≈ 4.02 µM)
IC90 (U87-MG): 6.17 mg/L (≈ 13.2 µM)
IC50 (SK-OV-3): 3.48 mg/L (≈ 7.44 µM)
IC90 (SK-OV-3): 7.54 mg/L (≈ 16.1 µM)
IC50 (RPMI 8226): 0.92 mg/L (≈ 1.97 µM)
IC90 (RPMI 8226): 3.48 mg/L (≈ 7.44 µM)
IC50 (Kasumi-1): 1.15 mg/L (≈ 2.46 µM)
IC90 (Kasumi-1): 2.39 mg/L (≈ 5.11 µM)
IC50 (K562/ADR): 0.75 mg/L (≈ 1.6 µM)
IC90 (K562/ADR): 3.2 mg/L (≈ 6.84 µM)
IC50 (Jurkat): 0.99 mg/L (≈ 2.12 µM)
IC90 (Jurkat): 5.77 mg/L (≈ 12.3 µM)
IC50 (H9): 0.75 mg/L (≈ 1.6 µM)
IC90 (H9): 1.99 mg/L (≈ 4.26 µM)
IC50 (NB4): 0.32 mg/L (≈ 0.684 µM)
IC90 (NB4): 1.3 mg/L (≈ 2.78 µM)
IC50 (CNE): 2.47 mg/L (≈ 5.28 µM)
IC90 (CNE): 9.36 mg/L (≈ 20 µM)
IC50 (Hela): 2.42 mg/L (≈ 5.18 µM)
IC90 (Hela): 6.3 mg/L (≈ 13.5 µM)
IC50 (MGC-803): 1.79 mg/L (≈ 3.83 µM)
IC90 (MGC-803): 3.99 mg/L (≈ 8.53 µM)
IC50 (Hep-2): 3.61 mg/L (≈ 7.72 µM)
IC90 (Hep-2): 14.7 mg/L (≈ 31.5 µM)
Compound: C=C1C(=O)[C@]23[C@H](OC(=O)c4ccncc4)[C@H]1CC[C@H]2[C@@]12CO[C@@]3(O)[C@@H](O)[C@@H]1C(C)(C)CCC2=O [BS-OR-012]
